Experimental findings from patent publication US9067943B2, “[1,2,3]triazolo[4,5-D]pyrimidine derivatives” (priority 2011, dated 2015) are described below.

One assay has as its target T1, human CB1 receptors (Homo sapiens, UniProt P21554).
T1 construct: expressed in transfected cells; host or cells: CHO cells
The assay is described as follows: cAMP assay. It counts as cell-based. In short, it runs like this: (§1)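 CHO cells expressing human CB1 or CB2 were preincubated 30 min at 30 °C in Krebs Ringer bicarbonate buffer with 1 mM IBMX, then exposed to compounds for 30 min at 30 °C. cAMP was measured by time-resolved FRET against a cAMP standard curve, and EC50 values were derived.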
Background: Cyclic AMP is a second messenger, typically raised through Gs and lowered through Gi signalling.

The next assay deals with T2, human CB2 receptors (Homo sapiens, UniProt P34972).
T2 construct: expressed in transfected cells; host or cells: CHO cells
The assay is described as follows: cAMP assay. The format is cell-based. In short, it runs like this: as §1

Where [1] appears, read: functional cAMP assay, CHO cells expressing human CB2, read-out: human CB2 EC50.

Read-outs that look alike come from different tables or passages of the source.

T2 sequence (P34972 whole entry): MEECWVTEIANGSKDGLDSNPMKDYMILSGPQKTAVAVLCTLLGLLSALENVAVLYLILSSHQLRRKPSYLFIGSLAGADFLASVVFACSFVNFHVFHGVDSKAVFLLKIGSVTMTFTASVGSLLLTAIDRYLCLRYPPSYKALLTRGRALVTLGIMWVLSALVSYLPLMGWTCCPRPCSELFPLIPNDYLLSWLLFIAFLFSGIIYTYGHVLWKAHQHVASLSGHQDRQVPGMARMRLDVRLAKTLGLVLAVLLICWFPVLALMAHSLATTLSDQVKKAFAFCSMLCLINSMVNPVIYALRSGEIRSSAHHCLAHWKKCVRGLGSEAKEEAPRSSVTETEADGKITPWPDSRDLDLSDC
T1 sequence (P21554 whole entry): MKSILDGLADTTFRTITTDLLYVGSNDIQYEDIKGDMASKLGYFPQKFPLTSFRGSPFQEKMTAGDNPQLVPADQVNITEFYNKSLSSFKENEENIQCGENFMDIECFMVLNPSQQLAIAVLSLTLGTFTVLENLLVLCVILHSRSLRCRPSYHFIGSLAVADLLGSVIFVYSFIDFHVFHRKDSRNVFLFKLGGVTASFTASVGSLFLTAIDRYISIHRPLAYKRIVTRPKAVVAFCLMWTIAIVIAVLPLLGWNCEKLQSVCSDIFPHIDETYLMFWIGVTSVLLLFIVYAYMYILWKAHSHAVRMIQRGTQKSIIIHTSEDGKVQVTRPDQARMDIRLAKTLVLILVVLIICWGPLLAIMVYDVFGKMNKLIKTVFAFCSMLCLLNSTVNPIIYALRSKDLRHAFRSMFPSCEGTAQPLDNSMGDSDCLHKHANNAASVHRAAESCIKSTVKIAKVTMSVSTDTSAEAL

In the case of `CC(=O)N[C@H]1CCN(c2nc(O[C@@H](C)C(F)(F)F)nc3nn(Cc4ccccc4C(F)(F)F)nc23)C1` [Example 142, N—{(S)-1-[2-(2-Trifluoromethyl-benzyl)-5-((S)-2,2,2-trifluoro-1-methyl-ethoxy)-2H-[1,2,3]triazolo[4,5-d]pyrimidin-7-yl]-pyrrolidin-3-yl}-acetamide], the EC50 – broadly, the concentration that produces a half-maximal response – on human CB1 receptors was greater than 10 µM; at human CB2 receptors (setting [1]) it was 1.11 µM.

Turning to `Cc1nnc(Cn2nc3nc(O[C@@H](C)C(F)(F)F)nc(N4CCC(F)(F)C4)c3n2)o1` [Example 118, 7-(3,3-Difluoro-pyrrolidin-1-yl)-2-(5-methyl-[1,3,4]oxadiazol-2-ylmethyl)-5-((S)-2,2,2-trifluoro-1-methyl-ethoxy)-2H-[1,2,3]triazolo[4,5-d]pyrimidine], the EC50 at human CB1 receptors is greater than 10 µM; on human CB2 receptors (setting [1]), 0.441 µM.

In the case of `Cn1c(Cn2nc3nc(C(C)(C)C)nc(N4CCC(F)(F)C4)c3n2)nnc1S(C)(=O)=O` [Example 70, 5-tert-Butyl-7-(3,3-difluoro-pyrrolidin-1-yl)-2-(5-methanesulfonyl-4-methyl-4H-[1,2,4]triazol-3-ylmethyl)-2H-[1,2,3]triazolo[4,5-d]pyrimidine], the EC50 at human CB1 receptors is greater than 10 µM; at human CB2 receptors it was 0.0336 µM.

`Cn1nnnc1Cn1nc2nc(C(C)(C)C)nc(N3CC(F)(F)C(F)(F)C3)c2n1` [Example 102, 5-tert-Butyl-2-(1-methyl-1H-tetrazol-5-ylmethyl)-7-(3,3,4,4-tetrafluoro-pyrrolidin-1-yl)-2H-[1,2,3]triazolo[4,5-d]pyrimidine]: the EC50 was greater than 10 µM at human CB1 receptors and 0.0063 µM on human CB2 receptors.

For `CC(C)(C)c1nc(N2CC[C@H](O)C2)c2nn(Cc3nc(Cl)ccc3Cl)nc2n1` [Example 76, (S)-1-[5-tert-Butyl-2-(3,6-dichloro-pyridin-2-ylmethyl)-2H-[1,2,3]triazolo[4,5-d]pyrimidin-7-yl]-pyrrolidin-3-ol], the EC50 was greater than 10 µM on human CB1 receptors and 0.0059 µM at human CB2 receptors.

For `CC(C)(C)c1nc(N2CCC(F)(F)C2)c2nn(Cc3c[nH]nc3C(F)(F)F)nc2n1` [Example 72, 5-tert-Butyl-7-(3,3-difluoro-pyrrolidin-1-yl)-2-(3-trifluoromethyl-1H-pyrazol-4-ylmethyl)-2H-[1,2,3]triazolo[4,5-d]pyrimidine], the EC50 was greater than 10 µM on human CB1 receptors and 0.0118 µM on human CB2 receptors.

Take `Cc1nc(Cn2nc3nc(C(C)(C)C)nc(N4CC[C@H](O)C4)c3n2)no1` [Example 86, (S)-1-[5-tert-Butyl-2-(5-methyl-[1,2,4]oxadiazol-3-ylmethyl)-2H-[1,2,3]triazolo[4,5-d]pyrimidin-7-yl]-pyrrolidin-3-ol]: the results for the EC50 on human CB1 receptors and on human CB2 receptors were greater than 10 µM and 0.0522 µM, respectively.

As to `C[C@H](Oc1nc(N2CCC(F)(F)C2)c2nn(Cc3nnnn3C)nc2n1)C(F)(F)F` [Example 120, 7-(3,3-Difluoro-pyrrolidin-1-yl)-2-(1-methyl-1H-tetrazol-5-ylmethyl)-5-((S)-2,2,2-trifluoro-1-methyl-ethoxy)-2H-[1,2,3]triazolo[4,5-d]pyrimidine], the EC50 was greater than 10 µM at human CB1 receptors and 0.0694 µM at human CB2 receptors.

On to `C[C@H](c1ccccc1Cl)n1nc2nc(C(C)(C)C)nc(N3CCC(F)(F)C3)c2n1` [Example 28, 5-tert-Butyl-2-[(R)-1-(2-chloro-phenyl)-ethyl]-7-(3,3-difluoro-pyrrolidin-1-yl)-2H-[1,2,3]triazolo[4,5-d]pyrimidine], for which the EC50 at human CB1 receptors amounted to 0.134 µM; at human CB2 receptors it was 0.0002 µM.

As for `CC(C)(C)c1nc(N2CCC(F)(F)C2)c2nn(Cc3ccncc3Cl)nc2n1` [Example 66, 5-tert-Butyl-2-(3-chloro-pyridin-4-ylmethyl)-7-(3,3-difluoro-pyrrolidin-1-yl)-2H-[1,2,3]triazolo[4,5-d]pyrimidine], the EC50 turned out to be 0.234 µM at human CB1 receptors and 0.0004 µM on human CB2 receptors.

As to `CC(C)(C)c1nc(N2CCC(F)(F)C2)c2nn(Cc3cnccc3Cl)nc2n1` [Example 35, 5-tert-Butyl-2-(4-chloro-pyridin-3-ylmethyl)-7-(3,3-difluoro-pyrrolidin-1-yl)-2H-[1,2,3]triazolo[4,5-d]pyrimidine], the EC50 at human CB1 receptors is 0.642 µM; at human CB2 receptors, 0.0005 µM.

For the molecule `CC(C)(C)c1nc(N2CCC(F)(F)C2)c2nn(CC(=O)c3ccc(Cl)cc3)nc2n1` [Example 53, 2-[5-tert-Butyl-7-(3,3-difluoro-pyrrolidin-1-yl)-[1,2,3]triazolo[4,5-d]pyrimidin-2-yl]-1-(4-chloro-phenyl)-ethanone], the EC50 was greater than 10 µM at human CB1 receptors and 0.0072 µM at human CB2 receptors.

Regarding `CC(C)(C)c1nc(N2CCC(F)(F)C2)c2nn(CC3CCCCC3)nc2n1` [Example 6, 5-tert-Butyl-2-cyclohexylmethyl-7-(3,3-difluoro-pyrrolidin-1-yl)-2H-[1,2,3]triazolo[4,5-d]pyrimidine], the results for the EC50 on human CB1 receptors and at human CB2 receptors were 0.306 µM and 0.0005 µM, respectively.

For the molecule `Cn1ncnc1Cn1nc2nc(C(C)(C)C)nc(N3CCC(F)(F)C3)c2n1` [Example 69, 5-tert-Butyl-7-(3,3-difluoro-pyrrolidin-1-yl)-2-(2-methyl-2H-[1,2,4]triazol-3-ylmethyl)-2H-[1,2,3]triazolo[4,5-d]pyrimidine], the EC50 on human CB1 receptors was greater than 10 µM; at human CB2 receptors, 0.0011 µM.

For `Cc1noc(Cn2nc3nc(C(C)(C)C)nc(N4CC[C@@](C)(O)C4)c3n2)n1` [Example 129-b, (R)-1-[5-tert-Butyl-2-(3-methyl-[1,2,4]oxadiazol-5-ylmethyl)-2H-[1,2,3]triazolo[4,5-d]pyrimidin-7-yl]-3-methyl-pyrrolidin-3-ol], the values for the EC50 on human CB1 receptors and at human CB2 receptors (setting [1]) were greater than 10 µM and 0.316 µM, respectively.

`O[C@H]1CCN(c2nc(OCC(F)(F)F)nc3nn(Cc4ccccc4C(F)(F)F)nc23)C1` [Example 110, (S)-1-[5-(2,2,2-Trifluoro-ethoxy)-2-(2-trifluoromethyl-benzyl)-2H-[1,2,3]triazolo[4,5-d]pyrimidin-7-yl]-pyrrolidin-3-ol]: the EC50 was greater than 10 µM on human CB1 receptors and 0.06 µM at human CB2 receptors.

Turning to `CC(C)(C)c1nc(N2CCC(F)(F)C2)c2nn(CCc3ccccn3)nc2n1` [Example 50, 5-tert-Butyl-7-(3,3-difluoro-pyrrolidin-1-yl)-2-(2-pyridin-2-yl-ethyl)-2H-[1,2,3]triazolo[4,5-d]pyrimidine], the EC50 on human CB1 receptors was greater than 10 µM; at human CB2 receptors, 0.0015 µM.

For `Cn1nnnc1Cn1nc2nc(C(C)(C)C)nc(N3CC[C@@H](O)C3)c2n1` [Example 113, (R)-1-[5-tert-Butyl-2-(1-methyl-1H-tetrazol-5-ylmethyl)-2H-[1,2,3]triazolo[4,5-d]pyrimidin-7-yl]-pyrrolidin-3-ol], the figures for the EC50 on human CB1 receptors and at human CB2 receptors were greater than 10 µM and 1.66 µM, respectively.

For the molecule `CC(C)(C)c1nc(N2CCC(F)(F)C2)c2nn(C3CCS(=O)(=O)C3)nc2n1` (stereo not drawn) [Example 63, 5-tert-Butyl-7-(3,3-difluoro-pyrrolidin-1-yl)-2-(1,1-dioxo-tetrahydro-1λ6-thiophen-3-yl)-2H-[1,2,3]triazolo[4,5-d]pyrimidine], the EC50 at human CB1 receptors is greater than 10 µM; on human CB2 receptors, 0.004 µM.

In the case of `CC(C)(C)c1nc(N2CC[C@](C)(O)C2)c2nn(Cc3ccccc3Cl)nc2n1` [Example 124-a, (S)-1-[5-tert-Butyl-2-(2-chloro-benzyl)-2H-[1,2,3]triazolo[4,5-d]pyrimidin-7-yl]-3-methyl-pyrrolidin-3-ol], the values for the EC50 on human CB1 receptors and at human CB2 receptors were greater than 10 µM and 0.0025 µM, respectively.

Take `Cn1nnnc1Cn1nc2nc(C(C)(C)C)nc(N3CC[C@](C)(O)C3)c2n1` [Example 130-a, (S)-1-[5-tert-Butyl-2-(1-methyl-1H-tetrazol-5-ylmethyl)-2H-[1,2,3]triazolo[4,5-d]pyrimidin-7-yl]-3-methyl-pyrrolidin-3-ol]: the EC50 at human CB1 receptors was greater than 10 µM; at human CB2 receptors (setting [1]), 0.172 µM.

Consider `CC(C)(C)Nc1nc(N2CCC(F)(F)C2)c2nn(Cc3ncccc3Cl)nc2n1` [Example 138, tert-Butyl-[2-(3-chloro-pyridin-2-ylmethyl)-7-(3,3-difluoro-pyrrolidin-1-yl)-2H-[1,2,3]triazolo[4,5-d]pyrimidin-5-yl]-amine], for which the EC50 was greater than 10 µM on human CB1 receptors and 0.054 µM at human CB2 receptors.

Take `CC(C)(C)c1nc(N2CC[C@@](C)(O)C2)c2nn(CCC(F)(F)F)nc2n1` [Example 132-b, (R)-1-[5-tert-Butyl-2-(3,3,3-trifluoro-propyl)-2H-[1,2,3]triazolo[4,5-d]pyrimidin-7-yl]-3-methyl-pyrrolidin-3-ol]: the EC50 on human CB1 receptors was greater than 10 µM; at human CB2 receptors, 0.0698 µM.

On to `CC(C)(C)c1nc(N2CCC(F)(F)C2)c2nn(Cc3cc(F)c(F)cc3Cl)nc2n1` [Example 19, 5-tert-Butyl-2-(2-chloro-4,5-difluoro-benzyl)-7-(3,3-difluoro-pyrrolidin-1-yl)-2H-[1,2,3]triazolo[4,5-d]pyrimidine], for which the EC50 at human CB1 receptors is greater than 10 µM; on human CB2 receptors, 0.0022 µM.

For the molecule `C[C@H](Oc1nc(N2CCC(F)(F)C2)c2nn(Cc3nnnn3C3CC3)nc2n1)C(F)(F)F` [Example 123, 2-(1-Cyclopropyl-1H-tetrazol-5-ylmethyl)-7-(3,3-difluoro-pyrrolidin-1-yl)-5-((S)-2,2,2-trifluoro-1-methyl-ethoxy)-2H-[1,2,3]triazolo[4,5-d]pyrimidine], the EC50 at human CB1 receptors is greater than 10 µM; at human CB2 receptors it was 0.0493 µM.

In the case of `CC(C)(C)c1nc(N2CCC(F)(F)C2)c2nn(Cc3cc(Cl)cnc3Cl)nc2n1` [Example 37, 5-tert-Butyl-2-(2,5-dichloro-pyridin-3-ylmethyl)-7-(3,3-difluoro-pyrrolidin-1-yl)-2H-[1,2,3]triazolo[4,5-d]pyrimidine], the EC50 at human CB1 receptors is greater than 10 µM; at human CB2 receptors it was 0.0009 µM.

`CC(C)(C)Nc1nc(N2CCC(F)(F)C2)c2nn(Cc3ccccc3S(C)(=O)=O)nc2n1` [Example 137, tert-Butyl-[7-(3,3-difluoro-pyrrolidin-1-yl)-2-(2-methanesulfonyl-benzyl)-2H-[1,2,3]triazolo[4,5-d]pyrimidin-5-yl]-amine]: the figures for the EC50 at human CB1 receptors and on human CB2 receptors were greater than 10 µM and 0.0053 µM, respectively.
